According to article PMC12210654, “Palazestrant, a novel oral Complete Estrogen Receptor Antagonist (CERAN) and Selective Estrogen Receptor Degrader (SERD), in patients with ER+/HER2− advanced or metastatic breast cancer: phase 1/2 study results” (Breast Cancer Research : BCR, 2025):

Experiment: Safety: adverse events (NCI CTCAE v5.0), electrocardiograms
Assay type: in vivo, human
Conditions: for TEAE Neutropenia, Any grade / TEAE Neutropenia, Grade 3 / TEAE Neutropenia, Grade 4 / TRAE Neutropenia, Any grade / TRAE Neutropenia, Grade 3 / TRAE Neutropenia, Grade 4: includes neutropenia, neutrophil count decreased, febrile neutropenia
Method: Safety assessments included the monitoring of AEs, clinical laboratory parameters, electrocardiograms, and vital signs. AE severity was graded according to the National Cancer Institute Common Terminology Criteria for Adverse Events (version 5.0).
All DLT analyses (phase 1a) were performed in patients enrolled in the study during cycle 1 and who either received 75% of the planned palazestrant doses or experienced a DLT during cycle 1. All PK analyses were performed in patients who received at least 1 dose of palazestrant and had adequate postbaseline PK samples for characterization of PK parameters. All safety analyses were performed and PFS assessed in patients who received at least 1 dose of palazestrant. Clinical response (CR or PR) was assessed in patients who received at least 1 cycle of palazestrant, had measurable disease at baseline, and had at least 1 postbaseline tumor assessment. CBR was assessed in patients who received at least 1 cycle of palazestrant, had at least 1 postbaseline tumor assessment, and started their first dose at least 24 weeks before data cutoff. Patients who discontinued study treatment without radiographic progression within 24 weeks from the first dose were not included in the CBR analysis. PK parameters were estimated using conventional noncompartmental methods. For CBR, estimates were accompanied by 2-sided 95% confidence intervals (95% CIs). For PFS, Kaplan–Meier analyses were used to determine medians, event-free rates, and 95% CIs. For all other outcomes, categorical data were analyzed using frequencies and percentages, and continuous data were analyzed using means (standard deviation) or medians (range), as appropriate.

## CCCN1CC(Oc2ccc([C@@H]3c4[nH]c5ccccc5c4C[C@@H](C)N3CC(C)(C)F)cc2)C1 [palazestrant, Palazestrant]
60 mg (n = 30)
  TEAE Constipation, Any grade: 6 (20.0) n (%)
  TEAE Constipation, Grade 3: 0 n (%)
  TEAE Constipation, Grade 4: 0 n (%)
  TEAE Diarrhea, Any grade: 6 (20.0) n (%)
  TEAE Diarrhea, Grade 3: 1 (3.3) n (%)
  TEAE Diarrhea, Grade 4: 0 n (%)
  TEAE Fatigue, Any grade: 13 (43.3) n (%)
  TEAE Fatigue, Grade 3: 0 n (%)
  TEAE Fatigue, Grade 4: 0 n (%)
  TEAE Headache, Any grade: 7 (23.3) n (%)
  TEAE Headache, Grade 3: 0 n (%)
  TEAE Headache, Grade 4: 0 n (%)
  TEAE Nausea, Any grade: 14 (46.7) n (%)
  TEAE Nausea, Grade 3: 0 n (%)
  TEAE Nausea, Grade 4: 0 n (%)
  TEAE Vomiting, Any grade: 5 (16.7) n (%)
  TEAE Vomiting, Grade 3: 0 n (%)
  TEAE Vomiting, Grade 4: 0 n (%)
  TRAE Fatigue, Any grade: 9 (30.0) n (%)
  TRAE Fatigue, Grade 3: 0 n (%)
  TRAE Fatigue, Grade 4: 0 n (%)
  TRAE Headache, Any grade: 3 (10.0) n (%)
  TRAE Headache, Grade 3: 0 n (%)
  TRAE Headache, Grade 4: 0 n (%)
  TRAE Nausea, Any grade: 10 (33.3) n (%)
  TRAE Nausea, Grade 3: 0 n (%)
  TRAE Nausea, Grade 4: 0 n (%)
  TRAE Vomiting, Any grade: 3 (10.0) n (%)
  TRAE Vomiting, Grade 3: 0 n (%)
  TRAE Vomiting, Grade 4: 0 n (%)
  TEAE Neutropenia, Any grade: 2 (6.7) n (%)
  TEAE Neutropenia, Grade 3: 0 n (%)
  TEAE Neutropenia, Grade 4: 0 n (%)
  TRAE Neutropenia, Any grade: 0 n (%)
  TRAE Neutropenia, Grade 3: 0 n (%)
  TRAE Neutropenia, Grade 4: 0 n (%)
120 mg (n = 86)
  TEAE Constipation, Any grade: 15 (17.4) n (%)
  TEAE Constipation, Grade 3: 0 n (%)
  TEAE Constipation, Grade 4: 0 n (%)
  TEAE Diarrhea, Any grade: 12 (14.0) n (%)
  TEAE Diarrhea, Grade 3: 0 n (%)
  TEAE Diarrhea, Grade 4: 0 n (%)
  TEAE Fatigue, Any grade: 22 (25.6) n (%)
  TEAE Fatigue, Grade 3: 3 (3.5) n (%)
  TEAE Fatigue, Grade 4: 0 n (%)
  TEAE Headache, Any grade: 17 (19.8) n (%)
  TEAE Headache, Grade 3: 0 n (%)
  TEAE Headache, Grade 4: 0 n (%)
  TEAE Nausea, Any grade: 54 (62.8) n (%)
  TEAE Nausea, Grade 3: 3 (3.5) n (%)
  TEAE Nausea, Grade 4: 0 n (%)
  TEAE Vomiting, Any grade: 25 (29.1) n (%)
  TEAE Vomiting, Grade 3: 4 (4.7) n (%)
  TEAE Vomiting, Grade 4: 0 n (%)
  TRAE Fatigue, Any grade: 17 (19.8) n (%)
  TRAE Fatigue, Grade 3: 2 (2.3) n (%)
  TRAE Fatigue, Grade 4: 0 n (%)
  TRAE Headache, Any grade: 13 (15.1) n (%)
  TRAE Headache, Grade 3: 0 n (%)
  TRAE Headache, Grade 4: 0 n (%)
  TRAE Nausea, Any grade: 47 (54.7) n (%)
  TRAE Nausea, Grade 3: 3 (3.5) n (%)
  TRAE Nausea, Grade 4: 0 n (%)
  TRAE Vomiting, Any grade: 21 (24.4) n (%)
  TRAE Vomiting, Grade 3: 2 (2.3) n (%)
  TRAE Vomiting, Grade 4: 0 n (%)
  TEAE Neutropenia, Any grade: 21 (24.4) n (%)
  TEAE Neutropenia, Grade 3: 3 (3.5) n (%)
  TEAE Neutropenia, Grade 4: 6 (7.0) n (%)
  TRAE Neutropenia, Any grade: 18 (20.9) n (%)
  TRAE Neutropenia, Grade 3: 3 (3.5) n (%)
  TRAE Neutropenia, Grade 4: 5 (5.8) n (%)
120 mg/day
  grade 4 neutropenia resolved with dose interruption followed by dose reduction, treatment continued with no further neutropenia: 3 patients
120 mg/day (n = 86)
  Grade 3 TEAE fatigue: 3.5%
  Grade 3 TEAE nausea: 3.5%
  Grade 3 TEAE neutropenia: 3.5%
  Grade 3 TEAE vomiting: 4.7%
  TEAE fatigue, any grade: 25.6%
  TEAE nausea, any grade: 62.8%
  TEAE vomiting, any grade: 29.1%
  TRAE fatigue, any grade: 19.8%
  TRAE headache, any grade: 15.1%
